The conditions of this data set: Liquid, Closed cell (Static) method.

Where “and” joins values, the source holds several entries; their conditions need not be identical. Equal entries are not always repeated. ± gives the expanded uncertainty stated by the source.

Broadly, the vapor or sublimation pressure is the pressure of vapour in equilibrium with the condensed phase. Consider `CCCC` [butane], for which the “vapor or sublimation pressure” value by setting is: (283.15 K) 148 ± 2 kPa; (293.15 K) 208 ± 2 kPa; (303.15 K) 282 ± 2 kPa; (313.15 K) 378 ± 2 kPa.
For `CCC` [propane] the same measures were 638 ± 3 kPa, 840 ± 3 kPa, 1083 ± 3 kPa and 1375 ± 4 kPa.
`FC(F)F` [trifluoromethane]: the “vapor or sublimation pressure” value was 3246 ± 9 kPa and 3242 ± 9 kPa (283.15 K); 4158 ± 10 kPa and 4162 ± 10 kPa (293.15 K).

Source of the values: the NIST ThermoML archive (doi:10.1016/j.jct.2009.06.009).
